Test systems include SK-MEL-5; CCRF-CEM; HCT-15; SF-295; SW-620; OVCAR-3; SF-539; SK-OV-3; TK-10; KM12; SF-268; SK-MEL-2; OVCAR-5; M14; Malme-3M; UACC-257; HCT-116; OVCAR-8; MCF7.
Common to all, as to test: NCI-60 cell line screen, 48 h

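Cells were grown in 96-well plates and exposed to each compound for 48 hours at five concentrations; endpoints were interpolated linearly between bracketing concentrations, or set to the highest concentration if not reached. Here, GI50 denotes the concentration required for 50% inhibition of growth.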 The source made the active and inactive calls. Rule as the data show it: active = GI50 up to about 1.1 µM and inactive = higher.

As for `CCCCC1CC(c2ccc(Cl)cc2)=NO1` (stereo not drawn), the GI50 with SK-MEL-5 is > 100 µM (inactive); in the assay with CCRF-CEM it was > 100 µM (inactive); in the assay on HCT-15, greater than 100 µM; in the assay with SF-295 it was > 100 µM (inactive); with SW-620 it was > 100 µM (inactive); with OVCAR-3, > 100 µM (inactive). The GI50 in the assay with SF-539, in the assay with SK-OV-3, in the assay on TK-10, with KM12, in the assay with SF-268 and in the assay on SK-MEL-2 was > 100 µM (inactive) each time. The GI50 in the assay on OVCAR-5, in the assay with M14, in the assay with Malme-3M, with UACC-257, in the assay on HCT-116 and with OVCAR-8 was > 100 µM (inactive) throughout.
Regarding `CCC[C@H]1O[C@@H]2CC(=O)O[C@@H]2C2=C1C(=O)C=CC2=O`, the GI50 in the assay on SK-MEL-5 is 20.1 µM (inactive); in the assay with CCRF-CEM it was 3.92 µM (inactive); in the assay with HCT-15, 15.3 µM; with SF-295 it was 25.4 µM (inactive); in the assay on SW-620 it was 11.2 µM (inactive); with OVCAR-3, 14.1 µM (inactive). The GI50 in the assay with SF-539 was 19.4 µM (inactive); with SK-OV-3, > 39.9 µM (inactive); with TK-10 it was > 42.8 µM (inactive); with KM12 it was 23.6 µM (inactive); in the assay on SF-268 it was 12.9 µM (inactive); in the assay on SK-MEL-2 it was 20.3 µM (inactive). The GI50 is 19.7 µM (inactive) in the assay with OVCAR-5; 18.7 µM (inactive) with M14; 18.2 µM (inactive) with Malme-3M; 18.9 µM (inactive) with UACC-257; 18 µM (inactive) with HCT-116; > 47.4 µM (inactive) with OVCAR-8.
In the case of `COC(=O)C1Cc2c([nH]c3ccccc23)C(c2ccccc2O)N1Cc1ccccc1` (stereo not drawn), the GI50 with SK-MEL-5 is 27.2 µM (inactive); in the assay on CCRF-CEM, > 46.5 µM (inactive); in the assay on HCT-15 it was greater than 46.5 µM; in the assay on SF-295, 21 µM (inactive); in the assay with SW-620, 39.5 µM (inactive); in the assay on OVCAR-3 it was 27.7 µM (inactive). For the same compound, the GI50 with SF-539 was 27.8 µM (inactive); in the assay with SK-OV-3, 30.8 µM (inactive); with TK-10, 34.3 µM (inactive); in the assay with KM12, > 31.6 µM (inactive); with SF-268, 26.4 µM (inactive); with SK-MEL-2, 21.8 µM (inactive). The GI50 in the assay with OVCAR-5 is > 46.5 µM (inactive); with M14, 38.4 µM (inactive); with Malme-3M, > 31.6 µM (inactive); with UACC-257, 33.7 µM (inactive); in the assay on HCT-116, 23.3 µM (inactive); in the assay on OVCAR-8, 29.4 µM (inactive).
In the case of `Oc1cn(-c2ccc(Cl)cc2)nc1-c1nnc(Nc2ccccc2)o1`, the GI50 with SK-MEL-5 is 11.4 µM (inactive); in the assay on HCT-15, 10.4 µM; with SF-295 it was 18.9 µM (inactive); with SW-620 it was 19.1 µM (inactive); in the assay with OVCAR-3, 31.8 µM (inactive); in the assay with SF-539, 15.3 µM (inactive). Further, the GI50 is 24.3 µM (inactive) in the assay with SK-OV-3; 18.5 µM (inactive) in the assay with TK-10; 17.7 µM (inactive) with KM12; 16.9 µM (inactive) in the assay on MCF7; 14.6 µM (inactive) in the assay with SF-268; 20.2 µM (inactive) in the assay with SK-MEL-2. For the same compound, the GI50 in the assay on OVCAR-5 was 88.7 µM (inactive); in the assay with M14 it was 19.6 µM (inactive); with Malme-3M, 25.2 µM (inactive); with UACC-257, 21.3 µM (inactive); in the assay with HCT-116, 16.1 µM (inactive); in the assay with OVCAR-8, 20.9 µM (inactive).
`COc1ccc(OC)c(NC(=O)C(=O)NNC(=O)c2sc(NNC(C)=O)nc2C)c1`: the GI50 with SK-MEL-5 was 39.9 µM (inactive); with CCRF-CEM it was 16.9 µM (inactive); in the assay on HCT-15, 31 µM; in the assay on SF-295, 32 µM (inactive); with SW-620, 22.6 µM (inactive); with OVCAR-3, 21.8 µM (inactive). Also, the GI50 in the assay with SF-539 was 26.8 µM (inactive); in the assay with SK-OV-3, 57.7 µM (inactive); with TK-10 it was 88.3 µM (inactive); with KM12, 39.4 µM (inactive); with SF-268, 27.3 µM (inactive); in the assay on SK-MEL-2, 43 µM (inactive). Also, the GI50 with OVCAR-5 is 72.4 µM (inactive); in the assay on M14 it was 50.9 µM (inactive); in the assay with Malme-3M it was 49.2 µM (inactive); in the assay on UACC-257, 23.6 µM (inactive); with HCT-116, 28.6 µM (inactive); in the assay on OVCAR-8 it was 34.9 µM (inactive).
For `C=C1C(=O)OC2/C=C(\C)C3OC3/C=C(/C(=O)OC)C(O)C(OC(=O)C3(C)OC3C)C12` (stereo not drawn), the GI50 was 1.31 µM (inactive) in the assay with SK-MEL-5; 0.397 µM (active) in the assay on CCRF-CEM; 1.53 µM in the assay with HCT-15; 13.6 µM (inactive) with SF-295; 0.959 µM (active) in the assay with SW-620; 2.42 µM (inactive) in the assay with OVCAR-3. Also, the GI50 was 2.18 µM (inactive) with SF-539; 13.4 µM (inactive) with SK-OV-3; 2.74 µM (inactive) with TK-10; 2.95 µM (inactive) in the assay on KM12; 15.3 µM (inactive) in the assay with SF-268; 2.48 µM (inactive) with SK-MEL-2. In addition, the GI50 with OVCAR-5 is 16.7 µM (inactive); in the assay on M14 it was 1.9 µM (inactive); in the assay on Malme-3M it was 1.52 µM (inactive); with UACC-257, 1.53 µM (inactive); with HCT-116 it was 1.11 µM (active); in the assay on OVCAR-8, 1.25 µM (inactive).
For the compound `O=c1c2ccccc2nc(-c2ccccc2)n1NC1OC(CO)C(O)C(O)C1O` (stereo not drawn), the GI50 with SK-MEL-5 is > 100 µM (inactive); in the assay on CCRF-CEM, > 100 µM (inactive); in the assay on HCT-15, greater than 100 µM; in the assay on SF-295, > 100 µM (inactive); with SW-620, > 100 µM (inactive); with OVCAR-3, > 100 µM (inactive). Moreover, the GI50 in the assay with SF-539, in the assay with SK-OV-3, in the assay with TK-10, in the assay on KM12, with SF-268 and in the assay with SK-MEL-2 was > 100 µM (inactive) throughout. Also, the GI50 in the assay on OVCAR-5, in the assay on M14, with Malme-3M, in the assay with UACC-257, with HCT-116 and in the assay with OVCAR-8 was > 100 µM (inactive) in each case.
Take `O=C1CN2C(c3ccccc3)=NN(c3ccc([N+](=O)[O-])cc3)C2(c2ccccc2)c2cc(Cl)ccc2N1CC1CC1` (stereo not drawn): the GI50 in the assay with SK-MEL-5 is > 100 µM (inactive); in the assay on CCRF-CEM, > 100 µM (inactive); in the assay with HCT-15, greater than 100 µM; with SF-295, > 100 µM (inactive); in the assay on SW-620, > 100 µM (inactive); with OVCAR-3 it was > 100 µM (inactive). Also, the GI50 in the assay on SF-539, with SK-OV-3, in the assay on TK-10, in the assay with KM12, in the assay with MCF7 and in the assay with SF-268 was > 100 µM (inactive) throughout. The GI50 in the assay with OVCAR-5, in the assay with M14, in the assay on Malme-3M, with UACC-257, with HCT-116 and with OVCAR-8 was > 100 µM (inactive) in each case.
In the case of `CC(C)CC(N)C(=O)OCN1C(=O)C2C3C=CC(C2C1=O)C1C2C(=O)N(COC(=O)C(N)CC(C)C)C(=O)C2C31` (stereo not drawn), the GI50 in the assay on SK-MEL-5 was > 100 µM (inactive); in the assay with CCRF-CEM it was 75.3 µM (inactive); with HCT-15, greater than 45 µM; in the assay on SF-295, > 100 µM (inactive); in the assay on SW-620 it was > 53.6 µM (inactive); in the assay with OVCAR-3, > 100 µM (inactive). Besides, the GI50 in the assay with SF-539, in the assay with SK-OV-3, in the assay on TK-10, with KM12, in the assay on SF-268 and in the assay with SK-MEL-2 was > 100 µM (inactive) throughout. Further, the GI50 in the assay on OVCAR-5 was > 100 µM (inactive); in the assay on M14, > 100 µM (inactive); in the assay on Malme-3M, > 100 µM (inactive); in the assay on UACC-257 it was > 100 µM (inactive); in the assay on HCT-116 it was > 43.8 µM (inactive); with OVCAR-8, > 100 µM (inactive).
Regarding `COc1ccc(OC)c2c1C(=O)C1CC1(Br)C2=O` (stereo not drawn), the GI50 is > 100 µM (inactive) in the assay with SK-MEL-5; > 100 µM (inactive) in the assay on CCRF-CEM; greater than 100 µM with HCT-15; > 100 µM (inactive) in the assay on SF-295; > 100 µM (inactive) in the assay with SW-620; > 100 µM (inactive) in the assay with OVCAR-3. For the same compound, the GI50 in the assay on SF-539, in the assay on SK-OV-3, with TK-10, with KM12, in the assay with SF-268 and with SK-MEL-2 was > 100 µM (inactive) throughout. Also, the GI50 in the assay on OVCAR-5, in the assay on M14, in the assay on Malme-3M, with UACC-257, with HCT-116 and in the assay on OVCAR-8 was > 100 µM (inactive) each time.
Regarding `O=C(Cc1ccccc1)NN1C(=O)/C(=C\c2ccc([N+](=O)[O-])cc2)S/C1=N\c1ccccc1`, the GI50 was > 100 µM (inactive) with SK-MEL-5; 68.9 µM (inactive) with CCRF-CEM; greater than 100 µM in the assay with HCT-15; > 100 µM (inactive) in the assay on SF-295; > 100 µM (inactive) in the assay with SW-620; 47.8 µM (inactive) with OVCAR-3. In addition, the GI50 in the assay on SF-539 was > 100 µM (inactive); with SK-OV-3, > 100 µM (inactive); in the assay with TK-10, > 100 µM (inactive); with KM12 it was > 100 µM (inactive); in the assay on MCF7, 63.2 µM (inactive); in the assay on SF-268 it was > 100 µM (inactive). The GI50 with SK-MEL-2 is > 100 µM (inactive); in the assay with OVCAR-5, > 100 µM (inactive); with M14 it was > 100 µM (inactive); with UACC-257 it was > 100 µM (inactive); in the assay with HCT-116, > 100 µM (inactive); in the assay with OVCAR-8, 77.6 µM (inactive).

The record behind these values is ChEMBL document CHEMBL1201862, “PubChem BioAssay data set” (2004).
